Data reported in patent US12702696B2, “Methods and composition for modulating immune response and immune homeostasis” (Massachusetts Institute of Technology, priority 2019, dated 2026).
Ends that are not written are not given here.

Columns and labels:
[1] = system: sympathetic (TH+) and sensory (tdTomato+) fibers of LNs; assay: 6-OHDA-mediated chemical sympathectomy, sensory and sympathetic fiber density in popliteal LNs (whole-mount imaging); format: in vivo, mouse; details: 6-OHDA 100 mg kg-1 intraperitoneally daily for 5 days vs saline; popliteal LNs of Nav1.8Cre/+; Rosa26LSL-tdTomato/+ mice
Description: To address the interdependence between these two types of innervation, Applicants assessed the sensitivity of each type of fiber to 6-hydroxydopamine (6-OHDA)-mediated chemical sympathectomy or diphtheria toxin A (DTA)-mediated genetic ablation of Nav1.8 lineage neurons. […] Thus, Applicants unexpectedly discovered that LNs receive not only sympathetic but also sensory innervation, two categorically different types of innervation that are anatomically independent of each other.
Whole mount immunohistochemistry of LNs was performed using an iDISCO protocol with methanol pretreatment optimized for LNs (Renier et al., 2014). Briefly, adult animals (6-12 weeks) were perfused with 25 mL of PBS (Hyclone) and 25 mL of 4% paraformaldehyde (PFA, Sigma) sequentially at room temperature (RT). Peripheral lymph nodes (PLNs), including popliteal and inguinal lymph nodes (popLNs and iLNs), were postfixed with 4% PFA for 1 hr at 4° C. […]
For sympathetic denervation, the stock solution of 6-hydroxydopamine (6-OHDA) (Sigma) was prepared in water at 42 mg/mL and stored at −20° C. […] Animals were analyzed the following day.
For quantification of innervation density of LNs as in FIGS. 1C-1F, relevant channels were first masked with the LN isosurface as described above. […]

[2] = mice; GAL2 selective agonist; cited from earlier work

| Compound | effect on sensory innervation (tdTomato+ fiber density) of LNs [1] | effect on sympathetic innervation (TH+ fiber density) of LNs [1] | anticonvulsant activity [2] |
| --- | --- | --- | --- |
| NCCc1cc(O)c(O)cc1O [6-OHDA, 6-hydroxydopamine] | not compromised | efficient sympathetic denervation of LNs |  |
| Galanin 2-11 amide: GAL2 selective galanin receptor agonist, CAS #367518-31-8 (WTLNSAGYLL-NH2; UniProt P22466 34-43, looked up, fragment) |  |  | anticonvulsant in mice |
